For orientation: GI50 means the concentration that inhibits growth by half.

Test systems include DMS-273; XF498; DLD-1; KM-20L2; DMS-114; M19-MEL; HOP-18; LXFL 529; RXF 631.
What all share (assay): DTP human tumour cell line panel, 48 h

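These data come from cells grown in 96-well plates and exposed to compound for 48 hours at five concentrations. GI50: concentration for 50% inhibition of growth.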 Calls of active or inactive are those of the source. Rule as the data show it: active = GI50 up to about 1.1 µM and inactive = higher.

As for `Nc1nc(N)c2ncn(CCOC(c3ccccc3)P(=O)(O)O)c2n1` (stereo not drawn), the GI50 with DMS-273, in the assay on XF498, in the assay on DLD-1, in the assay with KM-20L2, in the assay on DMS-114 and in the assay with M19-MEL was > 100 µM (inactive) in each case.
Consider `N#CN1CCC=C(c2cc3ccccc3[nH]2)C1`, for which the GI50 is 428 µM (inactive) in the assay with DMS-273; > 448 µM (inactive) with HOP-18; 236 µM (inactive) in the assay with LXFL 529; 370 µM (inactive) with DLD-1; 281 µM (inactive) with RXF 631; > 448 µM (inactive) in the assay on KM-20L2. The GI50 with M19-MEL is 243 µM (inactive).
On to `CC1(C)C(=O)C(C)(C)C1=NNC(N)=S`, for which the GI50 with DMS-273, in the assay on XF498, in the assay with LXFL 529, with RXF 631, in the assay with KM-20L2 and in the assay on DMS-114 was > 100 µM (inactive) each time. In addition, in the assay with M19-MEL, the GI50 was > 100 µM (inactive).
Take `O=C(O)[C@@H]1CCCC[C@@H]1C(=O)N(C1CCCCC1)C1CCCCC1`: the GI50 with DMS-273, with LXFL 529, in the assay with DLD-1, with RXF 631, with KM-20L2 and in the assay with DMS-114 was > 100 µM (inactive) in each case. The GI50 in the assay on M19-MEL is > 100 µM (inactive).
`COc1cc(C(=O)CC2(O)C(=O)Nc3c(Cl)cc(Cl)cc32)ccc1O` (stereo not drawn): the GI50 in the assay with DMS-273 was 53 µM (inactive); in the assay with HOP-18, 34.4 µM (inactive); in the assay on XF498 it was 48.3 µM (inactive); with LXFL 529 it was 27.9 µM (inactive); with DLD-1, 41.9 µM (inactive); in the assay on RXF 631 it was > 100 µM (inactive). The GI50 with KM-20L2 was 61.4 µM (inactive); in the assay on DMS-114, 37.8 µM (inactive).
As to `CC(=O)CCn1[nH]c(=O)c(Cl)c(Cl)c1=O`, the GI50 with DMS-273, in the assay on HOP-18, in the assay with XF498, with LXFL 529, in the assay on DLD-1 and in the assay on KM-20L2 was > 100 µM (inactive) each time. For the same compound, the GI50 with DMS-114 and in the assay with M19-MEL was > 100 µM (inactive) throughout.
Turning to `CN(C)CC(C)(C)C(=O)/C=C/c1ccccc1`, the GI50 in the assay on DMS-273 is 16.9 µM (inactive); in the assay on HOP-18, 17.1 µM (inactive); in the assay on XF498, 11.6 µM (inactive); in the assay on LXFL 529, 12.3 µM (inactive); in the assay on DLD-1 it was 12.6 µM (inactive); in the assay on KM-20L2 it was 15.3 µM (inactive). Further, the values for the GI50 in the assay on DMS-114 and in the assay with M19-MEL were 14.2 µM (inactive) and 16.3 µM (inactive), respectively.
With `O=[N+]([O-])c1ccc2c(Nc3ccccc3-c3ccccc3Nc3c4ccccc4nc4cc([N+](=O)[O-])ccc34)c3ccccc3nc2c1`, the GI50 was 4.58 µM (inactive) with DMS-273; > 100 µM (inactive) in the assay with HOP-18; 1.59 µM (inactive) with XF498; 2.61 µM (inactive) with LXFL 529; 2.63 µM (inactive) in the assay with DLD-1; 5.9 µM (inactive) in the assay on RXF 631. The GI50 in the assay with KM-20L2 was 5.32 µM (inactive); in the assay on DMS-114 it was 11.1 µM (inactive); in the assay on M19-MEL it was 6.56 µM (inactive).
`CCOC(=O)C1C(NC(N)=O)N(Cc2ccccc2)C(=O)N1Cc1ccccc1` (stereo not drawn): the GI50 with DMS-273, in the assay on HOP-18, in the assay on XF498, in the assay with LXFL 529, with DLD-1 and in the assay with RXF 631 was > 100 µM (inactive) in each case. Moreover, the GI50 in the assay with KM-20L2 is 41.3 µM (inactive); in the assay on DMS-114, > 100 µM (inactive); with M19-MEL it was > 100 µM (inactive).
For `CC1CCC2(C(=O)O)CCC3(C)C(=CCC4C5(C)CCC(O)C(C)(C)C5CCC43C)C2C1C` (stereo not drawn), the GI50 in the assay on DMS-273 is 10.9 µM (inactive); in the assay with HOP-18 it was 15.5 µM (inactive); with XF498, 5.86 µM (inactive); with DLD-1 it was 6.53 µM (inactive); in the assay with KM-20L2, 8.24 µM (inactive); in the assay on DMS-114, 9.42 µM (inactive). Besides, the GI50 with M19-MEL is 8.17 µM (inactive).
As to `O=C1N2Cc3c4ccc5c3CN3C(=O)N6Cc7c(ccc(c7CN1C6(c1ccccc1)C23c1ccccc1)OCCOCCNCCOCCO4)OCCOCCNCCOCCO5` (stereo not drawn), the GI50 was 41.2 µM (inactive) in the assay with DMS-273; 14.4 µM (inactive) in the assay with HOP-18; 60.1 µM (inactive) in the assay with XF498; 13.7 µM (inactive) in the assay with LXFL 529; > 100 µM (inactive) in the assay with DLD-1; 31.4 µM (inactive) in the assay on RXF 631. In addition, the GI50 is 52.4 µM (inactive) with KM-20L2, > 100 µM (inactive) in the assay with DMS-114 and 24.9 µM (inactive) in the assay on M19-MEL.
Turning to `Cc1ccc(S(=O)(=O)C(C#N)c2nc3ccccc3nc2-n2ccnc2)cc1` (stereo not drawn), the GI50 in the assay on DMS-273, in the assay on HOP-18, in the assay with XF498, with LXFL 529, with DLD-1 and in the assay with DMS-114 was > 100 µM (inactive) each time. For the same compound, in the assay with M19-MEL, the GI50 was > 100 µM (inactive).
With `COCOCC/C=C/C=O`, the GI50 in the assay with HOP-18, with XF498, with LXFL 529, with DLD-1, in the assay on KM-20L2 and with DMS-114 was > 100 µM (inactive) in each case.
In the case of `CCOC(=O)C(=O)Nc1c(C)cccc1CC`, the GI50 with HOP-18, with XF498, with LXFL 529, in the assay on DLD-1, with RXF 631 and in the assay on KM-20L2 was > 100 µM (inactive) in each case. Moreover, the GI50 in the assay with DMS-114 and in the assay on M19-MEL was > 100 µM (inactive) each time.
With `O=c1c2ccccc2nc2n1-c1ccccc1SC2`, the GI50 with DMS-273 was 47.2 µM (inactive); in the assay with XF498, 30.6 µM (inactive); in the assay on LXFL 529 it was 34.4 µM (inactive); with DLD-1, 55.5 µM (inactive); in the assay with RXF 631, 93.5 µM (inactive); in the assay with KM-20L2, > 100 µM (inactive). The GI50 was 34.7 µM (inactive) in the assay with DMS-114 and 67.1 µM (inactive) in the assay on M19-MEL.
Regarding `CCOC(=O)C1=C(Nc2ccc(NC3=C(C(=O)OCC)C(=O)CS3)cc2)SCC1=O`, the GI50 in the assay on DMS-273 is 20.7 µM (inactive); in the assay with XF498 it was 13.5 µM (inactive); with LXFL 529, 22.1 µM (inactive); with DLD-1 it was 20.7 µM (inactive); in the assay on KM-20L2 it was 35.2 µM (inactive); in the assay on DMS-114 it was 22.6 µM (inactive). In addition, the GI50 with M19-MEL was 21.7 µM (inactive).
As to `CCN(C(=N)C#N)c1ccccc1`, the GI50 in the assay on DMS-273 is > 42.5 µM (inactive); in the assay on HOP-18 it was > 100 µM (inactive); in the assay with LXFL 529, > 100 µM (inactive); in the assay with DLD-1, > 40.7 µM (inactive); with RXF 631, > 100 µM (inactive); with KM-20L2, > 100 µM (inactive). Moreover, the GI50 in the assay on DMS-114 was > 54.8 µM (inactive); in the assay with M19-MEL it was > 55.1 µM (inactive).
For the compound `COc1cc(C)c2c(c1C)OC(=O)c1c(C)c(Cl)c(O)c(C=O)c1O2`, the GI50 with DMS-273 was 14.9 µM (inactive); in the assay with XF498 it was 12.3 µM (inactive); in the assay with LXFL 529, 13.9 µM (inactive); in the assay on DLD-1, 11.6 µM (inactive); with RXF 631, 15.5 µM (inactive); in the assay on KM-20L2, 22.6 µM (inactive).
In the case of `Cc1cc(N(CCC#N)CCC#N)ccc1/N=N/c1ccc([N+](=O)[O-])cc1`, the GI50 in the assay on DMS-273 is 17 µM (inactive); with KM-20L2, > 100 µM (inactive); in the assay with DMS-114, 19 µM (inactive); in the assay on M19-MEL, > 100 µM (inactive).
`O=[N+]([O-])c1ccc2nc3ccscc-3c2c1`: the GI50 in the assay with DMS-273 was 12.2 µM (inactive); in the assay on HOP-18 it was 14.1 µM (inactive); with XF498 it was 17.1 µM (inactive); in the assay with LXFL 529, 13.7 µM (inactive); with DLD-1 it was 9.64 µM (inactive); with RXF 631 it was 14.8 µM (inactive). For the same compound, the GI50 in the assay with KM-20L2 was 25.2 µM (inactive); in the assay on DMS-114 it was 16.9 µM (inactive); with M19-MEL it was 20.1 µM (inactive).
On to `CC(=O)NC(CCCN(Cc1ccccc1)C(=O)N(CCCl)N=O)C(=O)NCc1ccccc1` (stereo not drawn), for which the GI50 is 41 µM (inactive) with DMS-273; > 100 µM (inactive) with HOP-18; > 37.8 µM (inactive) with XF498; > 100 µM (inactive) in the assay with LXFL 529; 62.7 µM (inactive) in the assay on DLD-1; 59.6 µM (inactive) in the assay on KM-20L2. Besides, the GI50 in the assay with DMS-114 is > 100 µM (inactive).
On to `NC(CCc1nc(-c2ccc(Cl)cc2)cs1)C(=O)O` (stereo not drawn), for which the GI50 in the assay on DMS-273, in the assay with HOP-18, with LXFL 529, in the assay with DLD-1, in the assay on RXF 631 and in the assay on KM-20L2 was > 100 µM (inactive) throughout. Besides, the GI50 in the assay on M19-MEL is > 100 µM (inactive).
For `CN(C)CCn1cnc2sc3ccccc3c21`, the GI50 is 20.2 µM (inactive) with HOP-18; > 100 µM (inactive) with XF498; > 100 µM (inactive) in the assay with LXFL 529; > 100 µM (inactive) in the assay with RXF 631; > 100 µM (inactive) in the assay with KM-20L2; > 100 µM (inactive) with DMS-114. Besides, the GI50 with M19-MEL is > 100 µM (inactive).
As for `CC(=O)[C@]1(O)Cc2c(O)c3c(c(O)c2[C@@H](OC2CC(N)C(O)C(C)O2)C1)C(=O)c1c(OCc2ccccc2)cccc1C3=O` (stereo partly drawn), the GI50 was 0.302 µM (active) in the assay with DMS-273; 1.71 µM (inactive) with HOP-18; 1.6 µM (inactive) in the assay on XF498; 1.14 µM (inactive) in the assay on LXFL 529; 1.15 µM (inactive) with KM-20L2; 1.36 µM (inactive) in the assay on DMS-114.
`O=C1/C(=C/c2cccc([N+](=O)[O-])c2)COc2ccccc21`: the GI50 was 1.95 µM (inactive) in the assay with DMS-273; 4.55 µM (inactive) with HOP-18; 2.43 µM (inactive) with LXFL 529; 2.94 µM (inactive) in the assay on DLD-1; 6 µM (inactive) with RXF 631; 4.99 µM (inactive) with KM-20L2. Further, the values for the GI50 in the assay on DMS-114 and in the assay with M19-MEL were 2.84 µM (inactive) and 2.32 µM (inactive), respectively.

Values taken from ChEMBL document CHEMBL1201862, “PubChem BioAssay data set” (2004).
